The values that follow come from patent publication US20220264878A1, “HERBICIDAL COMPOSITION CONTAINING R-TYPE PYRIDYLOXY CARBOXYLIC ACID DERIVATIVE AND USE THEREOF” (Qingdao Kingagroot Chemical Compound Co., Ltd., priority 2019, published 2022).

Assay in all cases: Post-emergence foliage spray, pot culture, fresh weight inhibition (Tables 1-48, 51-98, 101-148; 24 days)
Holding throughout (assay type): in vivo

The subject of one experiment is Echinochloa caudate. Particulars: Echinochloa, 576 h, read-out: Control effect (%) of B applied alone in corresponding dose. The protocol:
(§1) The above weeds were cultivated by a pot culture method. […] Full and uniform weed seeds were selected, soaked in warm water at 25° C. for 6 hours, and germinated in a 28° C. biochemical incubator (darkness). The weed seeds that had just germinatedwere evenly placed on the surface of the soil and then covered with 0.5-1 cm soil according to the sizes of seeds.
(§2) The technical materials were all dissolved in acetone, and diluted with an aqueous solution containing 0.1% emulsifier Tween-80. The dilution is performed as required.
(§3) A ratio of the active ingredient A to the active ingredient B and amounts thereof in each group depends on the characteristics and toxicity of the two agents, as well as the main application purpose of a corresponding formulation. Based on the pre-tests in this study, the dosage of the active ingredient A and B applied alone and in combination were shown in the tables. Water containing the solvent and emulsifier same with the above groups but free of the agents was used as a blank control.
(§4) In the stage of weeds with 3˜4 leaves, the weeds were thinned out to maintain 15 weeds per pot and 45 weeds for each treatment, then continued to be cultured to 5˜6 leaves stage of grassy weeds, 6˜7 leaves stage of broadleaf weeds, and treated.
(§5) The well-cultured weeds were evenly placed on a platform with an area of 0.5 m^2, and a solution of agents was sprayed on the stems and leaves thereof by the 3WP-2000-type walking spray tower at a dosage of 450 kg/ha and at a spray pressure of 0.3 MPa. After all the solution was sprayed, the valve was closed. After 30 seconds, the door of the spray tower was opened, and the nutritional bowl was taken out. Then the valve was opened, and the spray tube was cleaned by spraying 50 ml of water.
(§6) A pot-culture method was employed. For the cultivation of weeds, please refer to the Section 1.1), and “Pesticide guidelines for laboratory bioactivity tests—herbicides”. As to a method for applying agents, please refer to the section 2.3.2), that is, a foliage treatment was employed. After the treatment, the weeds were routinely cultured in a greenhouse.
(§7) A method for investigating absolute number was employed, wherein whole seedlings of survival weeds were cut off with a blade along the soil surface, and the fresh weight of the weeds was weighed with an analytical balance. For dead weeds, the fresh weight thereof was zero.
(§8) Wherein, in the formula, X represented the fresh weight inhibition rate of the active ingredient A in a dosage of P, and Y represented the fresh weight inhibition rate of the active ingredient B in a dosage of Q.

Experiment [1] deals with Echinochloa crusgalli var. zelayensis. Conditions: Echinochloa crus-galli, foliar, 576 h, foliage spray, 24 days, read-out: Control effect (%) of B applied alone in corresponding dose; for pest or weed control at 1.875 g/ha: B 1.875 g a.i./ha; for pest or weed control at 3.75 g/ha: B 3.75 g a.i./ha; for pest or weed control at 7.5 g/ha: B 7.5 g a.i./ha; for pest or weed control at 15 g/ha: B 15 g a.i./ha. As to the method: as §1, §2, §3, §4, §5, §6, §7, §8

A further experiment relates to Echinochloa oryzoides. Conditions: Echinochloa oryzoides, 576 h, read-out: Control effect (%) of B applied alone in corresponding dose; for pest or weed control at 1.875 g/ha: 1.875 g a.i./ha; for pest or weed control at 3.75 g/ha: 3.75 g a.i./ha; for pest or weed control at 7.5 g/ha: 7.5 g a.i./ha; for pest or weed control at 15 g/ha: 15 g a.i./ha. As to the method:
as §1, §2, §3, §4, §5, §6, §7, §8

Read-outs that look alike come from different tables or passages of the source.

Take `COc1cnc(OC)n2nc(NS(=O)(=O)c3c(OCC(F)F)cccc3C(F)(F)F)nc12` [penoxsulam]: the pest or weed control at 1.875 g/ha with Echinochloa caudate (penoxsulam 1.875 g a.i./ha) turned out to be 3.8%; in experiment [1], 2.4%; with Echinochloa oryzoides (Table 101), 4.7%. For the same molecule, the pest or weed control at 3.75 g/ha turned out to be 15.6% in the experiment with Echinochloa caudate (penoxsulam 3.75 g a.i./ha), 10.9% in experiment [1] and 13.8% with Echinochloa oryzoides (Table 101). The pest or weed control at 7.5 g/ha with Echinochloa caudate (penoxsulam 7.5 g a.i./ha) was found to be 46.5%; in experiment [1], 48.8%; in the experiment with Echinochloa oryzoides (Table 101), 47.9%. Also, the pest or weed control at 15 g/ha in the experiment with Echinochloa caudate (penoxsulam 15 g a.i./ha) is 69.4%; in experiment [1] it was 70.1%; in the experiment on Echinochloa oryzoides (Table 101) it was 68.4%.
Consider `COc1cc(OC)nc(NC(=O)NS(=O)(=O)c2ncccc2C(=O)N(C)C)n1` [nicosulfuron], for which the pest or weed control at 3.75 g/ha in the experiment on Echinochloa caudate (nicosulfuron 3.75 g a.i./ha) amounted to 3.8%; in experiment [1] it was 7.3%; in the experiment on Echinochloa oryzoides (Table 104), 9.9%. For the same molecule, the figures for the pest or weed control at 7.5 g/ha (in the experiment with Echinochloa caudate (nicosulfuron 7.5 g a.i./ha); in experiment [1]; in the experiment with Echinochloa oryzoides (Table 104)) were 14.3%, 15.4% and 18.2%, respectively. In addition, the pest or weed control at 15 g/ha in the experiment with Echinochloa caudate (nicosulfuron 15 g a.i./ha) was 40.2%; in experiment [1] it was 39.3%; in the experiment with Echinochloa oryzoides (Table 104) it was 40.5%. Further, the pest or weed control at 30 g/ha is 58.5% in the experiment with Echinochloa caudate (nicosulfuron 30 g a.i./ha); 58.7% in experiment [1] (B 30 g a.i./ha); 62.4% with Echinochloa oryzoides (Table 104, 30 g a.i./ha).
For the molecule `Cc1cnc(C2=NC(=O)C(C)(C(C)C)N2)c(C(=O)O)c1` (stereo not drawn) [imazapic], the pest or weed control at 9.375 g/ha with Echinochloa caudate (imazapic 9.375 g a.i./ha) worked out at 6.8%; in experiment [1] (B 9.375 g a.i./ha), 1.2%; with Echinochloa oryzoides (Table 108, 9.375 g a.i./ha), 4%. Moreover, the pest or weed control at 18.75 g/ha in the experiment with Echinochloa caudate (imazapic 18.75 g a.i./ha) was found to be 21.5%; in experiment [1] (B 18.75 g a.i./ha), 18.6%; in the experiment with Echinochloa oryzoides (Table 108, 18.75 g a.i./ha), 21.3%. The pest or weed control at 37.5 g/ha with Echinochloa caudate (imazapic 37.5 g a.i./ha) was found to be 28.6%; in experiment [1] (B 37.5 g a.i./ha), 26.9%; in the experiment with Echinochloa oryzoides (Table 108, 37.5 g a.i./ha), 30.4%. In addition, the pest or weed control at 75 g/ha with Echinochloa caudate (imazapic 75 g a.i./ha) came to 55.6%; in experiment [1] (B 75 g a.i./ha) it was 57%; in the experiment on Echinochloa oryzoides (Table 108, 75 g a.i./ha), 59.7%.
Turning to `COc1cc(OC)nc(Oc2cccc(Oc3nc(OC)cc(OC)n3)c2C(=O)O)n1` [bispyribac-sodium], the pest or weed control at 1.875 g/ha in the experiment with Echinochloa caudate (bispyribac-sodium 1.875 g a.i./ha) turned out to be 5.5%; in experiment [1], 5.3%; in the experiment on Echinochloa oryzoides (Table 102) it was 4.7%. Further, the pest or weed control at 3.75 g/ha with Echinochloa caudate (bispyribac-sodium 3.75 g a.i./ha) was determined as 16%; in experiment [1] it was 17.4%; in the experiment on Echinochloa oryzoides (Table 102), 18.2%. Also, the values for the pest or weed control at 7.5 g/ha (with Echinochloa caudate (bispyribac-sodium 7.5 g a.i./ha); in experiment [1]; in the experiment with Echinochloa oryzoides (Table 102)) were 44.9%, 43.4% and 44.1%, respectively. For the same molecule, the pest or weed control at 15 g/ha in the experiment on Echinochloa caudate (bispyribac-sodium 15 g a.i./ha) stood at 62.1%; in experiment [1] it was 62.9%; in the experiment with Echinochloa oryzoides (Table 102) it was 62%.
With `CCS(=O)(=O)c1cccnc1S(=O)(=O)NC(=O)Nc1nc(OC)cc(OC)n1` [rimsulfuron], the results for the pest or weed control at 1.875 g/ha (in the experiment on Echinochloa caudate (rimsulfuron 1.875 g a.i./ha); in experiment [1]; in the experiment with Echinochloa oryzoides (Table 106)) were 5.5%, 7.7% and 10.3%, respectively. Also, the pest or weed control at 3.75 g/ha worked out at 25.3% in the experiment with Echinochloa caudate (rimsulfuron 3.75 g a.i./ha), 25.5% in experiment [1] and 26.9% in the experiment with Echinochloa oryzoides (Table 106). The pest or weed control at 7.5 g/ha in the experiment on Echinochloa caudate (rimsulfuron 7.5 g a.i./ha) worked out at 37.9%; in experiment [1] it was 39.7%; in the experiment on Echinochloa oryzoides (Table 106) it was 43.7%. In addition, the pest or weed control at 15 g/ha in the experiment on Echinochloa caudate (rimsulfuron 15 g a.i./ha) came out at 65.8%; in experiment [1], 67.7%; with Echinochloa oryzoides (Table 106) it was 69.6%.
